{
  "source": "patent US20160346249A1",
  "about": "(priority 2012, published 2016)",
  "test": "Single dose 300 mg / 450 mg pharmacokinetic, safety and tolerability study in healthy male and female subjects",
  "details": "for concentration at 0 h / concentration at 0.5 h / concentration at 1 h / concentration at 2 h / concentration at 3 h / concentration at 4 h / concentration at 6 h / concentration at 8 h / concentration at 10 h / concentration at 12 h / concentration at 18 h / concentration at 24 h / concentration at […] / half-life / AUC(0-t) / Cmax / Tmax: plasma, po; for Percent of Dose in Urine (0-24 hr) / Ratio DOV 216,298/DOV 21,947 in urine (0-24 hr): Mean (SD)",
  "key": {"[1]": {"details": "single oral 300 mg DOV 21,947 HCl IR"}, "[2]": {"details": "single oral 450 mg DOV 21,947 HCl IR"}},
  "note": "Where “and” joins values, the source holds several entries; their conditions need not be identical. Equal values may be shown once.",
  "data": [
    {"smiles": "O=C1NCC2(c3ccc(Cl)c(Cl)c3)CC12", "note": "(stereo not shown) [EB-10101, 5-(3,4-dichloro-phenyl)-3-aza-bicyclo[3.1.0]hexan-2-one]", "values": [
      {"measurement": "concentration at 0 h", "setting": "female, human, 450 mg", "value": 0, "unit": "ng/mL"},
      {"measurement": "concentration at 0.5 h", "setting": "female, human, 450 mg", "value": 35.2, "unit": "ng/mL"},
      {"measurement": "concentration at 1 h", "setting": "female, human, 450 mg", "value": 285, "unit": "ng/mL"},
      {"measurement": "concentration at 2 h", "setting": "female, human, 450 mg", "value": 1030, "unit": "ng/mL"},
      {"measurement": "concentration at 3 h", "setting": "female, human, 450 mg", "value": 1650, "unit": "ng/mL"},
      {"measurement": "concentration at 4 h", "setting": "female, human, 450 mg", "value": 2180, "unit": "ng/mL"},
      {"measurement": "concentration at 6 h", "setting": "female, human, 450 mg", "value": 2710, "unit": "ng/mL"},
      {"measurement": "concentration at 8 h", "setting": "female, human, 450 mg", "value": 2990, "unit": "ng/mL"},
      {"measurement": "concentration at 10 h", "setting": "female, human, 450 mg", "value": 3030, "unit": "ng/mL"},
      {"measurement": "concentration at 12 h", "setting": "female, human, 450 mg", "value": 2930, "unit": "ng/mL"},
      {"measurement": "concentration at 18 h", "setting": "female, human, 450 mg", "value": 2140, "unit": "ng/mL"},
      {"measurement": "concentration at 24 h", "setting": "female, human, 450 mg", "value": 2390, "unit": "ng/mL"},
      {"measurement": "concentration at […]", "setting": "female, human, 450 mg", "value": "0 ng/mL and 155 ng/mL and 539 ng/mL and 660 ng/mL"},
      {"measurement": "half-life", "setting": "female, human, 450 mg, t½ (Harmonic mean), single oral 450 mg DOV 21,947 HCl IR, N = 5", "value": 24.5, "unit": "h"},
      {"measurement": "half-life", "setting": "female, human, 450 mg, t½, single oral 450 mg DOV 21,947 HCl IR, N = 5, arithmetic mean", "value": 41.8, "unit": "h"},
      {"measurement": "exposure to lactam greater than parent drug over 24 hr", "setting": "human, in vivo", "value": "approximately 70%"},
      {"measurement": "AUC(0-t)", "setting": "male, human, 300 mg", "value": 29200, "unit": "ng·h/mL"},
      {"measurement": "Cmax", "setting": "male, human, 300 mg", "value": 1740, "unit": "ng/mL"},
      {"measurement": "Tmax", "setting": "male, human, 300 mg", "value": 6.4, "unit": "h"},
      {"measurement": "concentration at 0 h", "setting": "male, human, 300 mg", "value": 0, "unit": "ng/mL"},
      {"measurement": "concentration at 0.5 h", "setting": "male, human, 300 mg", "value": 62.9, "unit": "ng/mL"},
      {"measurement": "concentration at 1 h", "setting": "male, human, 300 mg", "value": 404, "unit": "ng/mL"},
      {"measurement": "concentration at 2 h", "setting": "male, human, 300 mg", "value": 1040, "unit": "ng/mL"},
      {"measurement": "concentration at 3 h", "setting": "male, human, 300 mg", "value": 1490, "unit": "ng/mL"},
      {"measurement": "concentration at 4 h", "setting": "male, human, 300 mg", "value": 1470, "unit": "ng/mL"},
      {"measurement": "concentration at 6 h", "setting": "male, human, 300 mg", "value": 1520, "unit": "ng/mL"},
      {"measurement": "concentration at 8 h", "setting": "male, human, 300 mg", "value": 1590, "unit": "ng/mL"},
      {"measurement": "concentration at 10 h", "setting": "male, human, 300 mg", "value": 1670, "unit": "ng/mL"},
      {"measurement": "concentration at 12 h", "setting": "male, human, 300 mg", "value": 1410, "unit": "ng/mL"},
      {"measurement": "concentration at 18 h", "setting": "male, human, 300 mg", "value": 1100, "unit": "ng/mL"},
      {"measurement": "concentration at 24 h", "setting": "male, human, 300 mg", "value": 820, "unit": "ng/mL"},
      {"measurement": "concentration at […]", "setting": "male, human, 300 mg", "value": "3.03 ng/mL and 238 ng/mL and 629 ng/mL and 753 ng/mL"},
      {"measurement": "half-life", "setting": "male, human, 300 mg, t½ (Harmonic mean), single oral 300 mg DOV 21,947 HCl IR, N = 5", "value": 13.7, "unit": "h"},
      {"measurement": "half-life", "setting": "male, human, 300 mg, t½, single oral 300 mg DOV 21,947 HCl IR, N = 5, arithmetic mean", "value": 15.3, "unit": "h"},
      {"measurement": "AUC(0-t)", "setting": "male, human, 450 mg", "value": 46100, "unit": "ng·h/mL"},
      {"measurement": "Cmax", "setting": "male, human, 450 mg", "value": 2550, "unit": "ng/mL"},
      {"measurement": "Tmax", "setting": "male, human, 450 mg", "value": 9.2, "unit": "h"},
      {"measurement": "concentration at 0 h", "setting": "male, human, 450 mg", "value": 0, "unit": "ng/mL"},
      {"measurement": "concentration at 0.5 h", "setting": "male, human, 450 mg", "value": 107, "unit": "ng/mL"},
      {"measurement": "concentration at 1 h", "setting": "male, human, 450 mg", "value": 388, "unit": "ng/mL"},
      {"measurement": "concentration at 2 h", "setting": "male, human, 450 mg", "value": 1620, "unit": "ng/mL"},
      {"measurement": "concentration at 3 h", "setting": "male, human, 450 mg", "value": 1980, "unit": "ng/mL"},
      {"measurement": "concentration at 4 h", "setting": "male, human, 450 mg", "value": 2150, "unit": "ng/mL"},
      {"measurement": "concentration at 6 h", "setting": "male, human, 450 mg", "value": 2320, "unit": "ng/mL"},
      {"measurement": "concentration at 8 h", "setting": "male, human, 450 mg", "value": 2360, "unit": "ng/mL"},
      {"measurement": "concentration at 10 h", "setting": "male, human, 450 mg", "value": 2520, "unit": "ng/mL"},
      {"measurement": "concentration at 12 h", "setting": "male, human, 450 mg", "value": 2310, "unit": "ng/mL"},
      {"measurement": "concentration at 18 h", "setting": "male, human, 450 mg", "value": 1880, "unit": "ng/mL"},
      {"measurement": "concentration at 24 h", "setting": "male, human, 450 mg", "value": 1450, "unit": "ng/mL"},
      {"measurement": "concentration at […]", "setting": "male, human, 450 mg", "value": "0 ng/mL and 214 ng/mL and 752 ng/mL and 954 ng/mL"},
      {"measurement": "half-life", "setting": "male, human, 450 mg, t½ (Harmonic mean), single oral 450 mg DOV 21,947 HCl IR, N = 5", "value": 16.6, "unit": "h"},
      {"measurement": "half-life", "setting": "male, human, 450 mg, t½, single oral 450 mg DOV 21,947 HCl IR, N = 5, arithmetic mean", "value": 23.4, "unit": "h"},
      {"measurement": "λz", "setting": "single oral 300 mg DOV 21,947 HCl IR, Female, N = 5", "value": "0.046^b hr^−1"},
      {"measurement": "λz", "setting": "single oral 300 mg DOV 21,947 HCl IR, Male, N = 5", "value": 0.051, "unit": "h⁻¹"},
      {"measurement": "Percent of Dose in Urine (0-24 hr)", "setting": "[1]", "value": "0.075 (0.024) Percent of Dose"},
      {"measurement": "Ratio DOV 216,298/DOV 21,947 in urine (0-24 hr)", "setting": "[1]", "value": "0.195 (0.092)"},
      {"measurement": "Mean Amount in Urine", "setting": "single oral 300 mg DOV 21,947 HCl IR, Period 0-1 hr", "value": 0.0, "unit": "µg"},
      {"measurement": "Mean Amount in Urine", "setting": "single oral 300 mg DOV 21,947 HCl IR, Period 1-2 hr", "value": 2.7, "unit": "µg"},
      {"measurement": "Mean Amount in Urine", "setting": "single oral 300 mg DOV 21,947 HCl IR, Period 2-4 hr", "value": 52.5, "unit": "µg"},
      {"measurement": "Mean Amount in Urine", "setting": "single oral 300 mg DOV 21,947 HCl IR, Period 4-8 hr", "value": 56.2, "unit": "µg"},
      {"measurement": "Mean Amount in Urine", "setting": "single oral 300 mg DOV 21,947 HCl IR, Period 8-12 hr", "value": 34.8, "unit": "µg"},
      {"measurement": "Mean Amount in Urine", "setting": "single oral 300 mg DOV 21,947 HCl IR, Period 12-24 hr", "value": 47.8, "unit": "µg"},
      {"measurement": "Mean Amount in Urine", "setting": "single oral 300 mg DOV 21,947 HCl IR, Total (0-24 hr)", "value": 194, "unit": "µg"},
      {"measurement": "λz", "setting": "single oral 300 mg DOV 21,947 HCl IR, mean, N = 10", "value": "0.049^b hr^−1"},
      {"measurement": "λz", "setting": "single oral 450 mg DOV 21,947 HCl IR, Female, N = 5", "value": 0.028, "unit": "h⁻¹"},
      {"measurement": "λz", "setting": "single oral 450 mg DOV 21,947 HCl IR, Male, N = 5", "value": 0.042, "unit": "h⁻¹"},
      {"measurement": "Percent of Dose in Urine (0-24 hr)", "setting": "[2]", "value": "0.067 (0.035) Percent of Dose"},
      {"measurement": "Ratio DOV 216,298/DOV 21,947 in urine (0-24 hr)", "setting": "[2]", "value": "0.256 (0.173)"},
      {"measurement": "Mean Amount in Urine", "setting": "single oral 450 mg DOV 21,947 HCl IR, Period 0-1 hr", "value": 0.0, "unit": "µg"},
      {"measurement": "Mean Amount in Urine", "setting": "single oral 450 mg DOV 21,947 HCl IR, Period 1-2 hr", "value": 2.1, "unit": "µg"},
      {"measurement": "Mean Amount in Urine", "setting": "single oral 450 mg DOV 21,947 HCl IR, Period 2-4 hr", "value": 45.2, "unit": "µg"},
      {"measurement": "Mean Amount in Urine", "setting": "single oral 450 mg DOV 21,947 HCl IR, Period 4-8 hr", "value": 89.3, "unit": "µg"},
      {"measurement": "Mean Amount in Urine", "setting": "single oral 450 mg DOV 21,947 HCl IR, Period 8-12 hr", "value": 61.2, "unit": "µg"},
      {"measurement": "Mean Amount in Urine", "setting": "single oral 450 mg DOV 21,947 HCl IR, Period 12-24 hr", "value": 63.5, "unit": "µg"},
      {"measurement": "Mean Amount in Urine", "setting": "single oral 450 mg DOV 21,947 HCl IR, Total (0-24 hr)", "value": 261, "unit": "µg"},
      {"measurement": "λz", "setting": "single oral 450 mg DOV 21,947 HCl IR, mean, N = 10", "value": 0.035, "unit": "h⁻¹"}
    ]}
  ]
}
